ChEMBL document CHEMBL1124878, “Synthesis, phencyclidine-like pharmacology, and antiischemic potential of meta-substituted 1-(1-phenylcyclohexyl)-1,2,3,6-tetrahydropyridines” (J Med Chem, 1990)

Assays:
[1] = target: T1, Glutamate receptor ionotropic, NMDA 2C (Rattus norvegicus, UniProt Q00961); assay: Ability to displace [3H]TCP from PCP receptor in tissue homogenate preparation of fresh whole rat brain minus cerebellum.; assay type: tissue-based
[2] = target: T1, Glutamate receptor ionotropic, NMDA 2C; assay: Ability to displace [3H]- TCP from PCP receptor in tissue homogenate preparation of fresh whole rat brain minus cerebellum.; assay type: tissue-based

T1 sequence (Q00961 whole entry): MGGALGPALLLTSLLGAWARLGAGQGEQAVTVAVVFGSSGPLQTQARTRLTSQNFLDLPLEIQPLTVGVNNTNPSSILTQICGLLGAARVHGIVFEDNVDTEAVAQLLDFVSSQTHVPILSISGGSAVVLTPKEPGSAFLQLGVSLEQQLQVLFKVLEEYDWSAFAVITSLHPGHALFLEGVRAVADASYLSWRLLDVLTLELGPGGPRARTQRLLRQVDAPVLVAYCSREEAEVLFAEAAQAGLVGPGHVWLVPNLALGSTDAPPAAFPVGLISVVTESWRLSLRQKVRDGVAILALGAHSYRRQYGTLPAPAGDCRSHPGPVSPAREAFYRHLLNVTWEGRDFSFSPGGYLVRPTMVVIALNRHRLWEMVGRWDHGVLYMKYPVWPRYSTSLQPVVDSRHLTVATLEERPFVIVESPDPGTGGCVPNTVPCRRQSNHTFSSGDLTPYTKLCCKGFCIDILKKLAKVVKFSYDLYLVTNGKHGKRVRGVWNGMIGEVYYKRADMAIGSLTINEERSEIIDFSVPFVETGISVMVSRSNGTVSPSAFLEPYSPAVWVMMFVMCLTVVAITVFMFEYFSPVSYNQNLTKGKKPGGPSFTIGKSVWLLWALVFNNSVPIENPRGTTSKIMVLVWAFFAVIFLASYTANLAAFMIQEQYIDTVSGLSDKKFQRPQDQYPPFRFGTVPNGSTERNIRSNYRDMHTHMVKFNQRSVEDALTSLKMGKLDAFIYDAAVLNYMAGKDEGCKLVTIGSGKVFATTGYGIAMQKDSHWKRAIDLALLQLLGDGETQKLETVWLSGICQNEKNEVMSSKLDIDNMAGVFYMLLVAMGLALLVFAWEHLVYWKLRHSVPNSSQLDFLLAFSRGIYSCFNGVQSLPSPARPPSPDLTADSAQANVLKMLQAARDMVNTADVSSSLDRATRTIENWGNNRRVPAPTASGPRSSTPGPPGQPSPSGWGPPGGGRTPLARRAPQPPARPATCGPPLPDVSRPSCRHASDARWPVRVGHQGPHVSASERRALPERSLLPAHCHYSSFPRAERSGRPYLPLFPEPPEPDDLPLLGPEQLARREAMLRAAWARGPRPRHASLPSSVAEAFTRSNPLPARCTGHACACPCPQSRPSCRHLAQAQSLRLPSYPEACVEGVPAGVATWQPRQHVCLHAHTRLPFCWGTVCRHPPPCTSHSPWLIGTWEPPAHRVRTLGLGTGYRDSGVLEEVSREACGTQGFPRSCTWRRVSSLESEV

Question: With `Oc1cccc(C2(N3CC=CCC3)CCCCC2)c1` as the compound, how does the Ki [1] read?
Answer: 7 nM

Question: Which Ki [2] does the source give for `CSc1cccc(C2(N3CC=CCC3)CCCCC2)c1` here?
Answer: 231 nM

Question: With `C=Cc1cccc(C2(N3CC=CCC3)CCCCC2)c1` as the compound, how does the Ki [2] read?
Answer: 114 nM

Question: Which Ki [1] does the source give for `COc1cccc(C2(N3CC=CCC3)CCCCC2)c1` here?
Answer: 33 nM

Question: With `C1=CCN(C2(c3cccs3)CCCCC2)CC1` as the compound, how does the Ki [1] read?
Answer: 12 nM

Question: Which Ki [2] does the source give for `Cc1cccc(C2(N3CC=CCC3)CCCCC2)c1` here?
Answer: 81 nM

Question: With `COCOc1cccc(C2(N3CC=CCC3)CCCCC2)c1` as the compound, how does the Ki [2] read?
Answer: 92 nM

Question: `Fc1cccc(C2(N3CC=CCC3)CCCCC2)c1` was tested. Which Ki [2] did it give?
Answer: 281 nM

Question: With `O=Cc1cccc(C2(N3CC=CCC3)CCCCC2)c1` as the compound, how does the Ki [2] read?
Answer: 324 nM

Question: `FC(F)(F)c1cccc(C2(N3CC=CCC3)CCCCC2)c1` was tested. Which Ki [2] did it give?
Answer: 422 nM

Question: Which Ki [2] does the source give for `CC(=O)Oc1cccc(C2(N3CC=CCC3)CCCCC2)c1` here?
Answer: 6 nM

Question: For `COc1cc(OC)cc(C2(N3CC=CCC3)CCCCC2)c1`, which Ki [1] is on record?
Answer: 8600 nM

Question: How did the Ki [1] turn out when `C1=CCN(C2(c3cccc(C4OCCO4)c3)CCCCC2)CC1` was run?
Answer: 601 nM

Question: `C1=CCN(C2(c3cccc(OCc4ccccc4)c3)CCCCC2)CC1` was tested. Which Ki [1] did it give?
Answer: 733 nM

Question: For `C1=CCN(C2(c3ccccc3)CCCCC2)CC1`, which Ki [2] is on record?
Answer: 37 nM

Question: For `O/N=C/c1cccc(C2(N3CC=CCC3)CCCCC2)c1`, which Ki [1] is on record?
Answer: 56 nM
